Reference: ChEMBL document CHEMBL1133730 (J Med Chem, 2000)

Columns and labels:
[1] = target: Adenosine receptors; A1 & A3 (Rattus norvegicus) (UniProt P25099+P28647); experiment: Relative binding affinity for Adenosine A1 and A3 receptors; assay type: protein assay
[2] = target: T1, Adenosine receptor A3 (Homo sapiens, UniProt P0DMS8); experiment: Stimulation of [35S]GTP-gamma-S, against human adenosine A3 receptor; assay type: functional
T1 sequence (P0DMS8 whole entry): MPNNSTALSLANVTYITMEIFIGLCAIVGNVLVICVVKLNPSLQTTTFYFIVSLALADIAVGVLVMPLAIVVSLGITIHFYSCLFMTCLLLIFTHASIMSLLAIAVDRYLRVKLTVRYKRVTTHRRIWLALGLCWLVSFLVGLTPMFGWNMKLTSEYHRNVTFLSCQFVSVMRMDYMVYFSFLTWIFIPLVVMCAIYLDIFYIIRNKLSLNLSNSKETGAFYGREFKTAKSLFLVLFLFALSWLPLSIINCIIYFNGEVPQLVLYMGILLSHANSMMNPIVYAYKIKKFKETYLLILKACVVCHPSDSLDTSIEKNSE

[3] = target: Adenosine receptor A2a (Rattus norvegicus, UniProt P30543)
Adenosine receptor A2a (Rattus norvegicus, UniProt P30543), sequence (P30543 whole entry): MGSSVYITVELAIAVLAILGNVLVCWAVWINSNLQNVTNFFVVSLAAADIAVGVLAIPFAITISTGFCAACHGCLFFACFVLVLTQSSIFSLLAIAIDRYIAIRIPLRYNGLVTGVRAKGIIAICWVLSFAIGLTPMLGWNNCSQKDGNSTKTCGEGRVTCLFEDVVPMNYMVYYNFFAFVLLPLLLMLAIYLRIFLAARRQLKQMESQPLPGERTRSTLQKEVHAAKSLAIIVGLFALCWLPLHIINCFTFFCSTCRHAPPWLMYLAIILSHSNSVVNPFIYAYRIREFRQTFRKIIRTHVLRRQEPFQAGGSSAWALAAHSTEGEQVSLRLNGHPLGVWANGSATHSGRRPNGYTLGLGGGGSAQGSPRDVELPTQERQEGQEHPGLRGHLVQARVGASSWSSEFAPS

[4] = target: T2, Adenosine receptor A2b (Homo sapiens, UniProt P29275); experiment: biochemical
T2 sequence (P29275 whole entry): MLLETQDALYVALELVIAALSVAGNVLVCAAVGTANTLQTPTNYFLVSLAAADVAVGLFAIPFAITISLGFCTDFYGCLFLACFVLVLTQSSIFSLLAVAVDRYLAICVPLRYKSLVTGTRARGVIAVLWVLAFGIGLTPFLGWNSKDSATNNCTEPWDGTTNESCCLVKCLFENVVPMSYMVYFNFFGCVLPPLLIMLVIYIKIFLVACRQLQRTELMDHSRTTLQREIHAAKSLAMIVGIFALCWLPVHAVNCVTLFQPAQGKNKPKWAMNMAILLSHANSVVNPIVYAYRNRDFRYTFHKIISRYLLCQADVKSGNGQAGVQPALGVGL

[5] = target: T3, Adenosine receptor A3 (Homo sapiens) (UniProt P0DMS8); experiment: Maximum stimulation against human adenosine A3 receptor
T3 sequence (whole entry): T1 sequence (P0DMS8 whole entry)

[6] = target: T4, Adenosine receptor A1 (Rattus norvegicus) (UniProt P25099); experiment: Maximum stimulation against adenosine A1 receptor of rat cerebral cortical membrane
T4 sequence (whole entry): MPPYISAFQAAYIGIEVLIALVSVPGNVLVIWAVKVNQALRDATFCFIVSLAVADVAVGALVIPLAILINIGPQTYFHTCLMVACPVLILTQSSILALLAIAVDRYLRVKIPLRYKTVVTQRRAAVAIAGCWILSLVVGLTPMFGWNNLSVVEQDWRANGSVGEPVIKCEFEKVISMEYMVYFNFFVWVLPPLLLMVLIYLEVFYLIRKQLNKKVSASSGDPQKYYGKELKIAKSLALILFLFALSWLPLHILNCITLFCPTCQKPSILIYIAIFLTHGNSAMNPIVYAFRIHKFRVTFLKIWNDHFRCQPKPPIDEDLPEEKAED

[7] = target: T5, Adenosine receptor A1 (Rattus norvegicus, UniProt P25099)
T5 sequence (P25099 whole entry): T4 sequence (whole entry)

[8] = target: T6, Adenosine receptor A1 (Homo sapiens) (UniProt P30542); experiment: Maximum stimulation against human adenosine A1 receptor
T6 sequence (whole entry): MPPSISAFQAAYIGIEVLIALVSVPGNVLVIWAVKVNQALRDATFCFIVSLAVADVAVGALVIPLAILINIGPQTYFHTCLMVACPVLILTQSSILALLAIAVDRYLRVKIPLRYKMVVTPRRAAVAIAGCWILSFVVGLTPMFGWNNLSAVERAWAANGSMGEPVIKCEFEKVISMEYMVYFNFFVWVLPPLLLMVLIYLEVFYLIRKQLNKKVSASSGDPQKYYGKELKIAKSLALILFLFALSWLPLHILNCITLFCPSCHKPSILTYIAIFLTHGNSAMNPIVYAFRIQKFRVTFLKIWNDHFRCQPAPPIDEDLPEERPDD

[9] = target: T5, Adenosine receptor A1; remark: listed apart in the source
[10] = target: T7, Adenosine receptor A1 (Homo sapiens, UniProt P30542); experiment: Stimulation of [35S]GTP-gamma-S, binding to human adenosine A1 receptor; assay type: functional
T7 sequence (P30542 whole entry): T6 sequence (whole entry)

[11] = target: T1, Adenosine receptor A3; experiment: Displacement of [125I]- AB-MECA from human adenosine A3 receptor expressed in HEK cells; assay type: cell-based, HEK293
[12] = target: T1, Adenosine receptor A3; experiment: Displacement of [125I]- AB-MECA from human adenosine A3 receptor expressed in HEK cell in the absence of ADA; assay type: cell-based, HEK293
[13] = target: Adenosine receptor A2a (Homo sapiens, UniProt P29274); experiment: Displacement of [3H]ZM241385 from human adenosine A2A receptor expressed in HEK cells.
Adenosine receptor A2a (Homo sapiens, UniProt P29274), sequence (P29274 whole entry): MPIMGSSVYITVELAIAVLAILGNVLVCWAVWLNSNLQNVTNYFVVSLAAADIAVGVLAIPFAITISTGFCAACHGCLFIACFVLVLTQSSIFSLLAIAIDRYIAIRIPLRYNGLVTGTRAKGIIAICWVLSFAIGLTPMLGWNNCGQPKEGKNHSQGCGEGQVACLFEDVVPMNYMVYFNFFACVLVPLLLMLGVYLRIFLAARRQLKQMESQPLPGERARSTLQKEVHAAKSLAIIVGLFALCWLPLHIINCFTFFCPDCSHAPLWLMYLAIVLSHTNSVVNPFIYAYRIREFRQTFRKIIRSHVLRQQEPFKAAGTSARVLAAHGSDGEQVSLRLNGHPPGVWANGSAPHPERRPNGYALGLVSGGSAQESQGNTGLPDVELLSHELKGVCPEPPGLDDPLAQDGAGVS

[14] = target: T8, Adenosine receptor A2b (Homo sapiens) (UniProt P29275); experiment: Displacement of [3H]- ZM-241385 from human adenosine A2B receptor expressed in HEK cell at 50 uM; assay type: cell-based; conditions: HEK293
T8 sequence (whole entry): T2 sequence (P29275 whole entry)

[15] = target: T4, Adenosine receptor A1 (Rattus norvegicus); experiment: Displacement of [3H]R-PIA from adenosine A1 receptor in rat brain membranes at 100 uM; assay type: cell membranes
[16] = target: T9, Adenosine receptor A3 (Rattus norvegicus, UniProt P28647); experiment: Displacement of [125I]- AB-MECA from rat adenosine A3 receptor expressed in CHO cells; assay type: cell-based
T9 sequence (P28647 whole entry): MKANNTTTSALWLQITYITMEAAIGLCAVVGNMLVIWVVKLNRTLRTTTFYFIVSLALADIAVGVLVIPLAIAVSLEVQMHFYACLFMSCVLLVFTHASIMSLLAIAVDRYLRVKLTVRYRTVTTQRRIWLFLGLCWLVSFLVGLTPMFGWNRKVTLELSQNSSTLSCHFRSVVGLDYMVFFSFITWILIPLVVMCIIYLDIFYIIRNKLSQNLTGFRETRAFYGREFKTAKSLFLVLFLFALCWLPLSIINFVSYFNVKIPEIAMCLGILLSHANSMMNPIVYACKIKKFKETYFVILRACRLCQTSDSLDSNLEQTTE

[17] = target: Adenosine receptor A2a (Rattus norvegicus) (UniProt P30543); experiment: Displacement of [3H]-CGS- 21680 from adenosine A2A receptor of rat striatal membranes at 100 uM; assay type: cell membranes; conditions: Membrane
Adenosine receptor A2a (Rattus norvegicus), sequence (P30543 whole entry): as the sequence (P30543 whole entry) above

[18] = target: T8, Adenosine receptor A2b (Homo sapiens); experiment: Displacement of [3H]ZM241,385 binding to human adenosine A2B receptor expressed in HEK cells at 100 uM; assay type: cell-based; conditions: HEK293

SMILES | Ratio [1] | EC50 [2] | Ki [3] | Max [5] | Max [6] | Max [8] | Ki [9] | EC50 [10] | Ki [11] | other results
OC[C@@]12C[C@@H]1[C@@H](n1cnc3c(NCc4cccc(I)c4)nc(Cl)nc31)[C@H](O)[C@@H]2O | 63 | 0.67 nM | 732 nM | 22% | 48% | 91% | 141 nM | 142 nM | – | Ki [4]: 41000 nM; EC50 [7]: 684 nM
OC[C@@]12C[C@@H]1[C@@H](n1cnc3c(NCc4cccc(I)c4)ncnc31)[C@H](O)[C@@H]2O | – | 0.7 nM | 601 nM | 45.3% | – | 86% | – | 218 nM | 4.13 nM | Ki [4]: 12100 nM
Nc1ncnc2c1ncn2[C@H]1[C@H](O)[C@H](O)[C@]2(CO)C[C@H]12 | 4.2 | – | – | – | – | – | 1680 nM | – | – | Ki [12]: 404 nM; Ki [13]: 22500 nM; Displacement [14]: 35%
OC[C@@]12C[C@@H]1[C@@H](n1cnc3c(NC4CCCC4)ncnc31)[C@H](O)[C@@H]2O | 0.03 | > 10000 nM | 6800 nM | 14% | 75% | 102% | 5.06 nM | 21.5 nM | 170 nM | Ki [4]: 139000 nM; EC50 [7]: 100 nM
Nc1ncnc2c1ncn2[C@@]12C[C@H]1[C@H](CO)[C@@H](O)[C@H]2O | > 1 | – | – | – | – | – | – | – | – | Ki [12]: 62500 nM; Ki [13]: > 100000 nM; Displacement [14]: 20%; Displacement [15]: 15%
Nc1ncnc2c1ncn2[C@@H]1O[C@H](CO)[C@@H](O)[C@H]1O [ADENOSINE] | – | – | – | – | – | – | – | – | – | Ki [16]: 1000 nM
OC[C@H]1C[C@@H](n2cnc3c(NCc4cccc(I)c4)ncnc32)[C@H](O)[C@@H]1O | 13 | > 10000 nM | – | 14% | – | 5% | 25900 nM | > 10000 nM | 1960 nM | Displacement [17]: < 10%
OC[C@H]1O[C@@H](n2cnc3c(NCc4cccc(I)c4)ncnc32)[C@H](O)[C@@H]1O | – | – | – | 100% | 95% | 91% | – | – | – | –
OC[C@H]1O[C@@H](n2cnc3c(NC4CCCC4)ncnc32)[C@H](O)[C@@H]1O [N6-CYCLOPENTYLADENOSINE] | – | – | 857 nM | 100% | – | 100% | – | – | – | –
CCNC(=O)[C@H]1O[C@@H](n2cnc3c(N)ncnc32)[C@H](O)[C@@H]1O | – | – | – | 100% | – | – | – | – | – | –
OC[C@@]12C[C@@H]1[C@@H](n1cnc3c(NC4CCCC4)nc(Cl)nc31)[C@H](O)[C@@H]2O | 0.019 | > 10000 nM | 3390 nM | 15% | 96% | 97% | 8.76 nM | 31.2 nM | 466 nM | Displacement [18]: 27%; EC50 [7]: 145 nM
